Assay results published in patent publication US20110281852A1 (priority 2010, published 2011).

Key:
[1] = Serum glucose assay in mice; type: in vivo, mouse
Protocol: Six mice per subgroup were obtained finally.
Serum glucose, triglyceride, cholesterol assay: Blood samples from each mouse were collected and serum was separated by centrifugation for the measurement of levels of glucose, triglyceride and total cholesterol. Serum glucose concentrations were analyzed using Glucose (HK) Assay Kit (Sigma-aldrich, Saint Louis, Mo., USA). Serum triglyceride concentrations were analyzed using Serum Triglyceride Determination Kit (Sigma-aldrich, Saint Louis, Mo., USA). Serum cholesterol concentrations were analyzed using Amplex® Red Cholesterol Assay Kit (Invitrogen, Carlsbad, Calif., USA). All experimental assays were done according to the manufacturer's instructions.

GATA-3 = assay: Immunoblot, GATA-3 protein in 3T3-L1 cells; type: cell-based, mouse; settings: DM + 1, 2, 4, 8 μM, 8 days, p<0.05
Protocol: Immunoblot Analysis: GATA-2 and GATA-3 protein expression were assessed by Western blot. […] The cells were washed twice with PBS, lysed in a lysis buffer (HEPES-Tx-PI buffer: 10 mM HEPES, 5 mM EDTA, 350 mM Sucrose, 1 ug/ml leupeptin, 1 ug/ml pepstatin, 1% Triton-X, 1 mM PMSF, diluted in water), processed with a 25G needle and centrifuged at 10,000 rpm for 5 min. Protein concentration was determined using the […] according to the Pierce Protein Assay Protocol. Total protein (50 μg) was used for GATA-2 and GATA-3 analysis and was separated by electrophoresis using BioRad Electrophoretic System (60 V for 1 hour followed by 90 V for 5 hours). The protein was then transferred to nitrocellulose membranes at 35 V overnight. The membrane was blocked for 1 hour at room temperature in 5% nonfat milk in Tris-buffered saline (TBS), then washed with Tween-20-TBS (TTBS, 0.1% Tween-20) three times (15 min, 5 min, 5 min), followed by incubation with primary antibodies of GATA-2 (dilution 1:500), GATA-3 (dilution 1:500), β-Actin (dilution 1:1000) at room temperature for 2 hours. The membrane was rinsed three times (15 min, 5 min, 5 min), then incubated at room temperature for 1 hour with Horseradish peroxidase-conjugated second antibody (1:10,000). The membrane was then incubated in ECL reagent for 1 minute. Protein was visualized using UVP image analysis system.

GATA-2 [2] = assay: Immunoblot, GATA-2 protein in epididymal fat of FD mice; type: in vivo, mouse; settings: berberine treatment
Protocol: RNA and protein purification and quantification from epididymal fat tissues: RNA and protein was isolated from 60 mg of epididymal fat tissues with Trizol (Invitrogen, Carlsbad, Calif., USA) following the protocol recommended by the manufacturers. RNA was dissolved in pure water and quantified at 260/280 nm, and sample integrity was checked by 1.5% agarose gel electrophoresis. Protein concentration was determined using the Micro BCA Protein Assay Kit (Fisher Scientific, Pittsburgh, Pa., USA) according to the manufacturer's instructions.
Immunoblot Analysis: Protein expression of GATA-2, GATA-3, PPARγ and C/EBPα in the control of β-actin was assessed by Western Blot. Protein samples from the same group were homogenized as previously reported (Hu and Davies, Phytomedicine (2009) 16:864-873). Protein (25 μg) was separated by polyacrylamide gel electrophoresis using the BioRad Electrophoretic System (60 V for 1 h followed by 90 V for 5 h). The proteins were then transferred to nitrocellulose membranes at 35 V overnight. […]

GATA-2 [3] = assay: Immunoblot, GATA-2 protein in HWP; type: cell-based, human; settings: day 15
Protocol: Immunoblot Analysis: Protein expression of GATA-2, GATA-3, PPARγ and C/EBPα were assessed by Western Blot. Total proteins were isolated from HWP treated with compounds or vehicles on day 15. The cells were washed twice with PBS, lysed in a lysis buffer containing HEPES-Tx-PI buffer: […] HEPES, 5 mM EDTA, 350 mM Sucrose, 1 μg/ml leupeptin, 1 μg/ml pepstatin, 1% Triton-X, 1 mM PMSF), processed with a 25G needle and centrifuged at 10,000 rpm for 5 min. Protein concentration was determined using the Micro BCA Protein Assay Kit (Fisher Scientific, Pittsburgh, Pa., USA) according to the manufacturers instructions. 20 μg proteins were loaded and separated by electrophoresis using the BioRad Electrophoretic System (60 V for 1 hour followed by 90 V for 5 hours). The proteins were then transferred to nitrocellulose membranes at 35 V overnight. The membrane was blocked for 1 hour at room temperature in 5% nonfat milk in Tris-buffered saline (TBS), then washed with Tween-20-TBS (TTBS, 0.1% Tween-20) three times (15 min, 5 min, 5 min), followed by incubation with primary antibodies human GATA-2, GATA-3, PPARγ, C/EBPα and β-actin (dilution 1:200) (all antibodies were purchased from Santa Cruz Biotechnology, Santa Cruz, Calif., USA) at room temperature for 2 hours. The membrane was rinsed three times (15 min, 5 min, 5 min), then incubated at room temperature for 1 hour with Horseradish peroxidase-conjugated second antibody (1:10,000). The membrane was then incubated in ECL reagent (GE Healthcare, Piscataway, N.J., USA) for 1 minute. Protein was visualized using the UVP image analysis system (UVP, Upland, Calif., USA).

| Molecule | reduction of serum glucose level vs control treated subgroup ([1]; FD mice, 0.75 mg/kg/day) | fasting serum glucose level ([1]; FD mice, 0.75 mg/kg/day, 36 days (control 195.4±27.3)) | reduction of serum glucose level vs control treated subgroup ([1]; FD mice, 1.5 mg/kg/day) | fasting serum glucose level ([1]; FD mice, 1.5 mg/kg/day, 36 days) | reduction of serum glucose level vs control treated subgroup ([1]; FD mice, 3 mg/kg/day) | fasting serum glucose level ([1]; FD mice, 3 mg/kg/day, 36 days) | fasting serum glucose level ([1]; ND mice, 3 mg/kg/day (control 120.6±27.5)) | GATA-3 protein expression (GATA-3) | quantitative protein expression of GATA-2 (GATA-2 [2]) | GATA-2 protein expression relative to β-actin, normalized with controls (GATA-2 [3]; 1 μM) | GATA-2 protein expression relative to β-actin, normalized with controls (GATA-2 [3]; 2 μM) | GATA-2 protein expression relative to β-actin, normalized with controls (GATA-2 [3]; 4 μM) |
| --- | --- | --- | --- | --- | --- | --- | --- | --- | --- | --- | --- | --- |
| COc1ccc2cc3[n+](cc2c1OC)CCc1cc2c(cc1-3)OCO2.[Cl-] [berberine, Berberine (Chloride Form)] | 19.5% | 157.3 ± 22.5 mg/dL | 22.3% | 151.8 ± 21.1 mg/dL | 26.5% | 143.5 ± 12.7 mg/dL | 130.9 ± 16.2 mg/dL | increase | did not appear to be significantly changed |  |  |  |
| evodiamine |  |  |  |  |  |  |  |  |  | 2.44 fold | 4.81 fold | 4.92 fold |
